Reference: US20230159538A1, “PYRROLIDINE-PYRAZOLES AS PYRUVATE KINASE ACTIVATORS” (Global Blood Therapeutics, Inc., priority 2020, published 2023)

Assays:
[1] = biological target: PKR (Mus musculus, UniProt P53657); settings: mouse model of beta-thalassemia; cited from earlier work
[2] = biological target: T1, Pyruvate kinase M2 (PKM2) in H1299 cells (Homo sapiens, UniProt P14618); assay: Cell based assay for activation of pyruvate kinase M2 in lung carcinoma cell line (NADH/LDH coupled assay on cell lysate); settings: PKM2 cellular assay; for AC50: H1299 cells, 90 minutes with compound; for PKM2 % activation: maximal activation level relative to the activation level achieved by AG-348 @ 10 μM
T1 construct: endogenous in cells; host or cells: H1299
T1 sequence (P14618 2-531 limits assumed): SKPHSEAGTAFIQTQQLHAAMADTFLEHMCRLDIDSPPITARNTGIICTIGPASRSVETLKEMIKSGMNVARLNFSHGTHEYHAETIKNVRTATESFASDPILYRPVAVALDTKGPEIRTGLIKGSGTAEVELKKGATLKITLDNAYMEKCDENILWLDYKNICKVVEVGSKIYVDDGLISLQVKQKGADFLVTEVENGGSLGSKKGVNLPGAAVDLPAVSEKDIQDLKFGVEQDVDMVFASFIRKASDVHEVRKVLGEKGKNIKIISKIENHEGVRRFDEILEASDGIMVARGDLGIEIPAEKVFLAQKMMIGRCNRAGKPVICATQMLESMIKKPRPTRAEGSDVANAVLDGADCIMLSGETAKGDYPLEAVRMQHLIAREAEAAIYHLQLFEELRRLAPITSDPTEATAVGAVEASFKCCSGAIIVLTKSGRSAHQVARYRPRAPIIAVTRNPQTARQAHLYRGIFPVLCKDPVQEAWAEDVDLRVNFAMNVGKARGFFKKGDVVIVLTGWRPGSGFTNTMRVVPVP
Procedure: Cell Based Assay for Activation of Pyruvate Kinase M2 in Lung Carcinoma Cell Line
H1299 cells were seeded in 96-well plates at 2,000 cells/well (100 uL). Treated plates were incubated overnight at 37° C. with 5% CO2. Compounds were diluted in complete media and added to cells in the presence of 1% DMSO. Cells were incubated with compound for 90 minutes at 37° C. and 5% CO2 before washing three times with PBS to remove residual compound and then lysed in lysis buffer (Cell Signaling). […] PKM2 activity was measured at steady state using a coupled enzyme activation system based on NADH consumption. PKM2 produces pyruvate and the coupled system uses lactate dehydrogenase (LDH) to reduce pyruvate to lactate with the concomitant oxidation of NADH to NAD^+. Conversion of NADH to NAD^+ was monitored using a SPECTROstar Nano plate reader (BMG Labtech) at a wavelength of 340 nm and subtraction of background absorbance measured at 750 nm. The change in NADH absorbance after PEP addition was monitored and slope obtained by subtracting baseline at 750 nm followed by least squares fitting to a simple linear regression model. A 10-point curve was generated to calculate the AC50 values by fitting the rates of NADH consumption against increasing concentration of compound.

[3] = biological target: T2, Human pyruvate kinase R (PKR) (Homo sapiens, UniProt P30613); assay: Biochemical assay for activation of pyruvate kinase R (Kinase-Glo luminescence, ATP generation); settings: for AC50: 0.1 nM PKR, 2 mM FBP, 0.3 mM ADP, 0.1 mM PEP; for PKR % activation: maximal activation level relative to the activation level achieved by AG-348 @ 10 μM
T2 construct: Human pyruvate kinase R (PKR), residues 14-574; 6x-His (N, cleaved yes); 8x-Arg (N, cleaved yes); SUMO (N, cleaved yes); host or cells: E. coli
T2 sequence (P30613 14-574): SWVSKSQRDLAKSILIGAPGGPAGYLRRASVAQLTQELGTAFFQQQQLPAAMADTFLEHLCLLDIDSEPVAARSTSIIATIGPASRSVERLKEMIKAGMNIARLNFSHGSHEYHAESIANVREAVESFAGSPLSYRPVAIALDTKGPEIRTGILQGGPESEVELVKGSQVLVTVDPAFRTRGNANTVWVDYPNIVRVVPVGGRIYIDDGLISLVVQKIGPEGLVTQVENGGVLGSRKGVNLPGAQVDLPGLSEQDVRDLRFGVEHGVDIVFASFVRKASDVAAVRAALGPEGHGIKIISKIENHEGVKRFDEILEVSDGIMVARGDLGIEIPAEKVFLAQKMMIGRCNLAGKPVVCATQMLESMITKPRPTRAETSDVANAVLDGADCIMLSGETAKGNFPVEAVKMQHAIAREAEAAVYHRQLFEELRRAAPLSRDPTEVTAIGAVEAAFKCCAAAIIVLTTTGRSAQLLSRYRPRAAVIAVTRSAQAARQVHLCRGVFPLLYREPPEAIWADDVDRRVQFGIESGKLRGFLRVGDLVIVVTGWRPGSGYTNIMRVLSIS
Summary of the method: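 E. coli-expressed human PKR, freed of its His-Arg-SUMO tag and purified by anion exchange and size exclusion, was tested for activation. Read-out was luminescent measurement of ATP generation with Kinase-Glo reagent.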

PKR, sequence (P53657 whole entry): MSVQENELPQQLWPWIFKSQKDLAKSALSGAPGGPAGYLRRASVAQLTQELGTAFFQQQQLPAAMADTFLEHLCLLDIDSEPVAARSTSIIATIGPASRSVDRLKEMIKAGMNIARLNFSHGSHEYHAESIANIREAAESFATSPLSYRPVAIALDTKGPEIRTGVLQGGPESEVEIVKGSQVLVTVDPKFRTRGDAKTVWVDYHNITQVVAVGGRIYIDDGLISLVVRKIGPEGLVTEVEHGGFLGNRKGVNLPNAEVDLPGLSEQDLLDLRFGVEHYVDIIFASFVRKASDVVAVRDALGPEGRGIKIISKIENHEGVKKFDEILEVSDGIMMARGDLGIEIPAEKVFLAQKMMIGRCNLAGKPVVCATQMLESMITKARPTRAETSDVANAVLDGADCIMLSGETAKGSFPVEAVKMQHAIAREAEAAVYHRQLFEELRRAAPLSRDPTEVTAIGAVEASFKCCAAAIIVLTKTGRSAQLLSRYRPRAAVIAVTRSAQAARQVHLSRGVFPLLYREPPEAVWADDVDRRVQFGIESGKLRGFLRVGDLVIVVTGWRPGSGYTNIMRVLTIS

Row | AC50 [2] | AC50 [3] | SMILES | RBC parameters [1] | PKM2 % activation [2] | PKR % activation [3]
1 | 0.053 µM | 0.11 µM | N[C@H](C(=O)N1Cc2cn(S(=O)(=O)c3ccc4ncsc4c3)nc2C1)c1ccccc1 [Compound 14, (2S)-2-amino-1[2-(1,3-benzothiazole-6-sulfonyl)-2H,4H,5H,6H-pyrrolo[3,4-c]pyrazol-5-yl]-2-phenylethan-1-one] |  |  | 
2 | 0.026 µM | 0.045 µM | N[C@@H](C(=O)N1Cc2cn(S(=O)(=O)c3ccc4ncsc4c3)nc2C1)c1ccccc1 [Compound 15, (2R)-2-amino-1-[2-(1,3-benzothiazole-6-sulfonyl)-2H,4H,5H,6H-pyrrolo[3,4-c]pyrazol-5-yl]-2-phenylethan-1-one] |  |  | 
3 | 0.023 µM | 0.024 µM | N[C@@H](C(=O)N1Cc2cn(S(=O)(=O)c3ccc4ncsc4c3)nc2C1)c1ccccc1F [Compound 17, (2R)-2-amino-1-[2-(1,3-benzothiazole-6-sulfonyl)-2H,4H,5H,6H-pyrrolo[3,4-c]pyrazol-5-yl]-2-(2-fluorophenyl)ethan-1-one] |  |  | 
4 | 0.091 µM | 0.038 µM | N[C@@H](C(=O)N1Cc2cn(S(=O)(=O)c3ccc4ncsc4c3)nc2C1)c1cccc(F)c1 [Compound 32, (2R)-2-amino-1-[2-(1,3-benzothiazole-6-sulfonyl)-2H,4H,5H,6H-pyrrolo[3,4-c]pyrazol-5-yl]-2-(3-fluorophenyl)ethan-1-one] |  |  | 
5 | 0.017 µM | 0.021 µM | Cc1cccc([C@@H](N)C(=O)N2Cc3cn(S(=O)(=O)c4ccc5ncsc5c4)nc3C2)c1 [Compound 37, (2R)-2-amino-1-[2-(1,3-benzothiazole-6-sulfonyl)-2H,4H,5H,6H-pyrrolo[3,4-c]pyrazol-5-yl]-2-(3-methylphenyl)ethan-1-one] |  |  | 
6 | 0.016 µM | 0.017 µM | O=C([C@H](O)c1ccccc1)N1Cc2cn(S(=O)(=O)c3ccc4ncsc4c3)nc2C1 [Compound 42, (2R)-1-[2-(1,3-benzothiazole-6-sulfonyl)-2H,4H,5H,6H-pyrrolo[3,4-c]pyrazol-5-yl]-2-hydroxy-2-phenylethan-1-one] |  |  | 

Further lines, the compound ahead of its results:

Row | SMILES | AC50 [2] | AC50 [3] | RBC parameters [1] | PKM2 % activation [2] | PKR % activation [3]
7 | O=C(c1ccc(NS(=O)(=O)c2cccc3cccnc23)cc1)N1CCN(CC2CC2)CC1 [AG-348, Mitapivat] |  |  | improved |  | 
8 | O=S(=O)(c1ccc2c(c1)NCCO2)N1Cc2cn(S(=O)(=O)c3ccc4ncsc4c3)nc2C1 [Compound 12, 6-{[2-(1,3-benzothiazole-6-sulfonyl)-2H,4H,5H,6H-pyrrolo[3,4-c]pyrazol-5-yl]sulfonyl}-3,4-dihydro-2H-1,4-benzoxazine] | 0.023 µM | 0.041 µM |  |  | 
9 | C[C@@H](O)[C@H](C(=O)N1Cc2cn(S(=O)(=O)c3ccc4c(c3)NCCO4)nc2C1)c1ccccc1 [Compound 23] | 0.061 µM | 0.056 µM |  | 116% | 95%
10 | C[C@@H](O)[C@H](C(=O)N1Cc2cn(S(=O)(=O)c3ccc4c(c3)NCCO4)nc2C1)c1ccccc1 [Compound 24] | 0.059 µM | 0.078 µM |  | 63% | 65%
11 | N[C@@H](C(=O)N1Cc2cn(S(=O)(=O)c3ccc(OC(F)F)cc3)nc2C1)c1cccc(F)c1 [Compound 29, (2R)-2-amino-1-{2-[4-(difluoromethoxy)benzenesulfonyl]-2H,4H,5H,6H-pyrrolo[3,4-c]pyrazol-5-yl}-2-(3-fluorophenyl)ethan-1-one] | 0.025 µM | 0.092 µM |  |  | 
12 | O=C(N1Cc2cn(S(=O)(=O)c3ccc4ncsc4c3)nc2C1)C1(c2ccccc2)COC1 [Compound 40, 6-{[5-(3-phenyloxetane-3-carbonyl)-2H,4H,5H,6H-pyrrolo[3,4-c]pyrazol-2-yl]sulfonyl}-1,3-benzothiazole] | 0.031 µM | 0.06 µM |  |  | 
